{
  "source": "patent US20060104981A1",
  "about": "“Prophylactic/therapeutic agent for cancer” (priority 2002, published 2006)",
  "format_in_all_cases": "cell-based",
  "key": {"colon cell line HCT116": {"system": "colon cell line HCT116", "experiment": "Apoptosis (caspase 3/7 activity, Caspase Glo-3/7 assay) after siRNA transfection", "settings": "day 3 after transfection", "description": "(§1) RNA Duplexes for the base sequence represented by SEQ ID NO: 3 (hereinafter briefly referred to as siRNA) were designed (SEQ ID NO: 11 and SEQ ID NO: 12) and provided for the transfection experiment using the synthetic duplexes (Qiagen, Inc.). For control siRNAs, commercially available Control (non-silencing) siRNAs (SEQ ID NO: 13 and SEQ ID NO: 14) (manufactured by Qiagen, Inc.) were used.\n(§2) Meanwhile, 1×10^3 cells were seeded on a 96-well plate (manufactured by Falcon Co., Ltd.) to assess the effect on apoptosis. Forty-eight hours later, siRNA or control siRNA to EZH2 was transfected using Lipofectamine 2000 (manufactured by Invitrogen Corp.) as described above. On day 3 after the siRNA transfection, the caspase 3/7 activity as an indicator of apoptosis was compared by the Caspase Glo-3/7 assay (manufactured by Promega Corp.)."}, "[1]": {"system": "lung cancer cell line NCI-H1299", "experiment": "Apoptosis (caspase 3/7 activity, Caspase Glo-3/7 assay) after siRNA transfection", "settings": "day 3 after transfection", "description": "as §1, §2"}, "[2]": {"system": "EZH2 (RNA) in colon cell line HCT116", "experiment": "EZH2 (RNA) expression by quantitative PCR after siRNA transfection", "settings": "36 hours after transfection, siRNA 45 nM", "text": "as §1\n(§3) Colon cell line HCT116 (purchased from ATCC) and lung cancer cell line NCI-H1299 (purchased from ATCC) were used as the test cells used for the following test. Forty-eight hours before transfection of siRNAs, 5×10^5 cells were plated on a 24-well plate (manufactured by Falcon Co., Ltd.). In transfection of these siRNAs, Lipofectamine 2000 (manufactured by Invitrogen Corp.) was used in accordance with its protocol. The final concentration of siRNAs was set at 45 nM. RNA was extracted 36 hours after the transfection, following the protocol of RNeasy Mini Kit (manufactured by Qiagen, Inc.) and cDNA was prepared using TaqMan Reverse Transcription Reagents (manufactured by Applied Biosystems, Inc.). Quantitative PCR was performed on ABI PRISM™ 7900HT Sequence Detector (manufactured by Applied Biosystems, Inc.), using two primers (SEQ ID NO: 6 and SEQ ID NO: 7) and a probe (SEQ ID NO: 8), as in EXAMPLE 4."}, "[3]": {"system": "EZH2 (RNA) in lung cancer cell line NCI-H1299", "experiment": "EZH2 (RNA) expression by quantitative PCR after siRNA transfection", "settings": "36 hours after transfection, siRNA 45 nM", "text": "as §1, §3"}},
  "data": [
    {"substance": "siRNA to EZH2: RNA duplexes for the base sequence of SEQ ID NO: 3; antisense strand SEQ ID NO: 11, sense strand SEQ ID NO: 12 (antisense AAGUUGAACAGAAAGCUGCTT; sense GCAGCUUUCUGUUCAACUUTT; RNA duplexes, chemistry of the tt overhangs not given here)", "values": [
      {"measurement": "apoptosis as compared to the control (100%)", "setting": "colon cell line HCT116", "result": 185, "unit": "%"},
      {"measurement": "apoptosis as compared to the control (100%)", "setting": "[1]", "result": 143, "unit": "%"},
      {"measurement": "expression of EZH2 (RNA) as compared to control siRNA (100%)", "setting": "[2]", "result": 50, "unit": "%"},
      {"measurement": "expression of EZH2 (RNA) as compared to control siRNA (100%)", "setting": "[3]", "result": 13, "unit": "%"}
    ]}
  ]
}
